Measured values from ChEMBL document CHEMBL5113512, “β-Nitrostyrene derivatives as broad range potential antifungal agents targeting fungal cell wall” (2022).
Values after ≈ are worked out from the molar mass of the structure shown. Active and inactive are the calls of the source. No cut-off for these calls is given here.

Columns and labels:
Candida [1] = experiment: Downregulation of CDC15 gene expression in Candida cells; type: functional, cell-based
Candida [2] = experiment: Downregulation of CDC4 gene expression in Candida cells; type: functional, cell-based
Candida [3] = experiment: Downregulation of CMP1 gene expression in Candida cells; type: functional, cell-based
Candida [4] = experiment: Downregulation of PGA13 gene expression in Candida cells; type: functional, cell-based
Candida tropicalis = experiment: Antifungal activity against Candida tropicalis ATCC 750 assessed as inhibition of fungal growth by broth microdilution method; type: functional
[Candida] auris [5] = Antifungal activity against Candida auris 118 assessed as inhibition of fungal growth by broth microdilution method; type: functional; details: Candidozyma auris
[Candida] auris [6] = Antifungal activity against wild type Candida auris 102 assessed as inhibition of fungal growth by broth microdilution method; type: functional; details: Candidozyma auris
Cell membrane [7] = experiment: Disruption of membrane integrity in Candida albicans ATCC 24433 assessed as cell deformation measured after 30 mins by SEM analysis; type: subcellular
Cell membrane [8] = experiment: Disruption of membrane integrity in Candida albicans ATCC 24433 assessed as cell surface perturbations measured after 3 hrs by SEM analysis
Candida albicans [9] = experiment: Downregulation of CAS5 gene expression in Candida albicans ATCC 24433 by qRT-PCR analysis; type: functional
Candida albicans [10] = experiment: Upregulation of IFF8 gene expression in Candida albicans ATCC 24433 by qRT-PCR analysis; type: functional
Candida albicans [11] = experiment: Induction of ROS generation in Candida albicans ATCC 24433 at sub-inhibitory concentration incubated for 1 hr by DCFDA staining-based flow cytometric analysis; type: functional, organism-based
[Candida] auris [12] = Induction of ROS generation in Candida auris CBS10913 at sub-inhibitory concentration incubated for 1 hr by DCFDA staining-based flow cytometric analysis; type: functional, organism-based; details: Candidozyma auris
Candida albicans [13] = experiment: Synergistic antifungal activity against wild type Candida albicans SN152 assessed as fluconazole MIC incubated for 48 hrs by checker board assay; type: functional
Candida albicans [14] = experiment: Synergistic antifungal activity against wild type Candida albicans SN152 assessed as inhibition of fungal growth incubated for 48 hrs in presence of fluconazole by checker board assay; type: functional
Candida albicans [15] = experiment: Synergistic antifungal activity against wild type Candida albicans SN152 assessed as fractional inhibitory concentration index incubated for 48 hrs in presence of fluconazole by checker board assay; type: functional
Candida albicans [16] = experiment: Synergistic antifungal activity against Candida albicans SN152 harboring CAS5 mutant assessed as inhibition of fungal growth incubated for 48 hrs in presence of fluconazole by checker board assay; type: functional
Candida albicans [17] = experiment: Synergistic antifungal activity against Candida albicans SN152 harboring CAS5 mutant assessed as fractional inhibitory concentration index incubated for 48 hrs in presence of Amphotericin B by checker board assay; type: functional
Candida albicans [18] = experiment: Synergistic antifungal activity against wild type Candida albicans SN152 assessed as inhibition of fungal growth incubated for 48 hrs in presence of Caspofungin by checker board assay; type: functional
Candida albicans [19] = experiment: Synergistic antifungal activity against Candida albicans SN152 harboring CAS5 mutant assessed as inhibition of fungal growth incubated for 48 hrs in presence of Caspofungin by checker board assay; type: functional
Candida albicans [20] = experiment: Synergistic antifungal activity against Candida albicans SN152 harboring CAS5 mutant assessed as fractional inhibitory concentration index incubated for 48 hrs in presence of Caspofungin by checker board assay; type: functional
Candida parapsilosis [21] = experiment: Synergistic antifungal activity against Candida parapsilosis ATCC 90018 assessed as Congo red MIC incubated for 48 hrs by checker board assay; type: functional; details: Lodderomyces parapsilosis
[Candida] auris [22] = Synergistic antifungal activity against Candida auris CBS10913 assessed as fractional inhibitory concentration index incubated for 48 hrs in presence of Congo red by checker board assay; type: functional, Candidozyma auris
Candida parapsilosis [23] = experiment: Synergistic antifungal activity against Candida parapsilosis ATCC 90018 assessed as Calcoflour White MIC incubated for 48 hrs by checker board assay; type: functional; details: Lodderomyces parapsilosis
Candida parapsilosis [24] = experiment: Synergistic antifungal activity against Candida parapsilosis ATCC 90018 assessed as fractional inhibitory concentration index incubated for 48 hrs in presence of Calcoflour White by checker board assay; type: functional
[Candida] auris [25] = Synergistic antifungal activity against Candida auris CBS10913 assessed as SDS MIC incubated for 48 hrs by checker board assay; type: functional; details: Candidozyma auris
[Candida] auris [26] = Synergistic antifungal activity against Candida auris CBS10913 assessed as inhibition of fungal growth incubated for 48 hrs in presence of SDS by checker board assay; type: functional; details: Candidozyma auris
[Candida] auris [27] = Synergistic antifungal activity against Candida auris CBS10913 assessed as fractional inhibitory concentration index incubated for 48 hrs in presence of SDS by checker board assay; type: functional, Candidozyma auris
Candida albicans [28] = experiment: Antifungal activity against Candida albicans ATCC 24433 overexpressing transporter protein GU4 assessed as inhibition of fungal growth by broth microdilution method; type: functional
Candida albicans [29] = experiment: Antifungal activity against Candida albicans ATCC 24433 overexpressing transporter protein F5 assessed as inhibition of fungal growth by broth microdilution method; type: functional
Candida albicans [30] = experiment: Antifungal activity against Candida albicans ATCC 24433 overexpressing ADCDR1-GFP assessed as inhibition of fungal growth by broth microdilution method; type: functional
Candida albicans [31] = experiment: Antifungal activity against Candida albicans ATCC 24433 overexpressing ADPDR5-GFP assessed as inhibition of fungal growth by broth microdilution method; type: functional
Candida albicans [32] = experiment: Antifungal activity against Candida albicans ATCC 24433 overexpressing AD(1-8)u-assessed as inhibition of fungal growth by broth microdilution method; type: functional
Candida albicans [33] = experiment: Synergistic antifungal activity against Candida albicans ATCC 24433 overexpressing ADCDR1-GFP assessed as fractional inhibitory concentration index incubated for 48 hrs in presence of caspofungin by checker board assay; type: functional
Candida albicans [34] = experiment: Synergistic antifungal activity against Candida albicans ATCC 24433 overexpressing ADCaMDR1-GFP assessed as fractional inhibitory concentration index incubated for 48 hrs in presence of caspofungin by checker board assay; type: functional
Candida albicans [35] = experiment: Synergistic antifungal activity against Candida albicans ATCC 24433 overexpressing ADPDR5-G assessed as fractional inhibitory concentration index incubated for 48 hrs in presence of caspofungin by checker board assay; type: functional
Candida albicans [36] = experiment: Inhibition of drug efflux in Candida albicans ATCC 24433 overexpressing ADCDR1-GFP assessed as reduction in rhodamine 6g efflux preincubated for 45 mins followed by substrate addition and measured after 30 mins; type: functional; details: dose 0.1-100 µg/ml, time 75.0 min, DDE = dose-dependent effect
Candida [37] = experiment: Downregulation of CCW14 gene expression in Candida cells; type: functional, cell-based
Candida [38] = experiment: Downregulation of PGA48 gene expression in Candida cells; type: functional, cell-based
Candida [39] = experiment: Downregulation of VTC3 gene expression in Candida cells; type: functional, cell-based
Candida [40] = experiment: Downregulation of GIT3 gene expression in Candida cells; type: functional, cell-based
Candida [41] = experiment: Downregulation of BMT4 gene expression in Candida cells; type: functional, cell-based
Candida [42] = experiment: Downregulation of CCT2 gene expression in Candida cells; type: functional, cell-based
Candida [43] = experiment: Downregulation of TCP1 gene expression in Candida cells; type: functional, cell-based
Candida [44] = experiment: Downregulation of CLN3 gene expression in Candida cells; type: functional, cell-based
Candida [45] = experiment: Upregulation of ARG1 gene expression in Candida cells; type: functional, cell-based
Candida [46] = experiment: Upregulation of ARG5 gene expression in Candida cells; type: functional, cell-based
Candida [47] = experiment: Upregulation of ARG6 gene expression in Candida cells; type: functional, cell-based
Candida [48] = experiment: Upregulation of GAL4 gene expression in Candida cells; type: functional, cell-based

O=[N+]([O-])/C=C/c1ccc(O)cc1
Activity (Candida [1]): Active | Activity (Candida [2]): Active | Activity (Candida [3]): Active | Activity (Candida [4]): Active | MIC80 (Candida tropicalis): 4 µg/mL (≈ 24.2 µM) | MIC80 ([Candida] auris [5]): 4 µg/mL (≈ 24.2 µM) | MIC80 ([Candida] auris [6]): 2 µg/mL (≈ 12.1 µM) | Activity (Cell membrane [7]): Active | Activity (Cell membrane [8]): Active | Activity (Candida albicans [9]): Active | Activity (Candida albicans [10]): Active | Activity (Candida albicans [11]): Active | Activity ([Candida] auris [12]): Active | MIC (Candida albicans [13]): 0.25 µg/mL | MIC (Candida albicans [14]): 0.0039 µg/mL | fractional inhibitory concentration index (FICI) (Candida albicans [15]): 0.25 | MIC (Candida albicans [16]): 0.001 µg/mL | fractional inhibitory concentration index (FICI) (Candida albicans [17]): 0.515 | MIC (Candida albicans [18]): 0.0625 µg/mL | MIC (Candida albicans [19]): 0.0019 µg/mL | fractional inhibitory concentration index (FICI) (Candida albicans [20]): 0.5 | MIC (Candida parapsilosis [21]): 6.25 µg/mL | fractional inhibitory concentration index (FICI) ([Candida] auris [22]): 0.3125 | MIC (Candida parapsilosis [23]): 25 µg/mL | fractional inhibitory concentration index (FICI) (Candida parapsilosis [24]): 0.5 | MIC ([Candida] auris [25]): 60 µg/mL | MIC ([Candida] auris [26]): 0.5 µg/mL | fractional inhibitory concentration index (FICI) ([Candida] auris [27]): 0.5 | MIC80 (Candida albicans [28]): 4 µg/mL (≈ 24.2 µM) | MIC80 (Candida albicans [29]): 2 µg/mL (≈ 12.1 µM) | MIC80 (Candida albicans [30]): 4 µg/mL (≈ 24.2 µM) | MIC80 (Candida albicans [31]): 4 µg/mL (≈ 24.2 µM) | MIC80 (Candida albicans [32]): 4 µg/mL (≈ 24.2 µM) | fractional inhibitory concentration index (FICI) (Candida albicans [33]): <0.5 | fractional inhibitory concentration index (FICI) (Candida albicans [34]): <0.5 | fractional inhibitory concentration index (FICI) (Candida albicans [35]): <0.5 | inhibition (Candida albicans [36]): Dde | Activity (Candida [37]): Active | Activity (Candida [38]): Active | Activity (Candida [39]): Active | Activity (Candida [40]): Active | Activity (Candida [41]): Active | Activity (Candida [42]): Active | Activity (Candida [43]): Active | Activity (Candida [44]): Active | Activity (Candida [45]): Active | Activity (Candida [46]): Active | Activity (Candida [47]): Active | Activity (Candida [48]): Active
